The text below walks through data of patent publication US20180201592A1, “2-AMINO-1,3,4-THIADIAZINE AND 2-AMINO-1,3,4-OXADIAZINE BASED ANTIFUNGAL AGENTS” (F2G Limited, priority 2015, published 2018).

Holding throughout (conditions): banded MIC grade
One assay relates to Aspergillus fumigatus. In words: Minimum inhibitory concentration, YAG medium. Type of assay: cell-based. A digest of the protocol: (§1)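 Spores from 5-day Sabouraud agar cultures were suspended in YAG medium (1% glucose, 1% ammonium chloride, 0.5% yeast extract) at 1-2×10^4 cfu/mL and exposed to doubling dilutions of compound (50-0.05 mg/L) for 24 hrs at 35° C. MIC was the lowest concentration giving >70% growth inhibition by OD485 versus drug-free control.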

The subject of the next assay is A. fumigatus 210. Nature of the assay: Minimum inhibitory concentration, YAG medium. Type of assay: cell-based, Aspergillus fumigatus. The essentials: as §1
For a further assay, the system named is C. tropicalis. Nature of the assay: Minimum inhibitory concentration, RPMI medium. Type of assay: cell-based. The essentials:
(§2)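 Growth was measured by OD at 485 nm after 24-48 hrs at 35° C in RPMI 1640 medium. Compound was serially diluted twofold in water, starting from a 5 mg/mL DMSO stock solution.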

The test system of the next assay is C. parapsilosis. Nature of the assay: Minimum inhibitory concentration, RPMI medium. The assay is classed as cell-based. A digest of the protocol:
as §2

The test system of the next assay is C. albicans. In words: Minimum inhibitory concentration, RPMI medium. The assay is classed as cell-based. The essentials:
as §2

The next assay deals with A. terreus 49. In words: Minimum inhibitory concentration, YAG medium. Type of assay: cell-based, Aspergillus terreus. The essentials: (§3)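 MIC in mg/L, from OD485 growth read-out after 24 hrs at 35° C in YAG medium with Aspergillus spores. Doubling dilutions in water made from a 5 mg/mL DMSO stock.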
For the next assay, the system named is Aspergillus flavus. Nature of the assay: Minimum inhibitory concentration, YAG medium. Type of assay: cell-based. A digest of the protocol: as §3
The test system of a further assay is Aspergillus niger. In words: Minimum inhibitory concentration, YAG medium. Type of assay: cell-based. The essentials: as §3
The test system of another assay is Aspergillus terreus. Nature of the assay: Minimum inhibitory concentration, YAG medium. The assay is classed as cell-based. A digest of the protocol: as §3

On to `Cc1cccc(C2=NN=C(N)SC2)c1`, for which, in the assay on Aspergillus fumigatus, the “MIC grade, A. FUMIGATUS, YAG media” value was 1 (1: ≥5 mg/L). Moreover, in the assay with A. fumigatus 210, the “MIC grade, A. FUMIGATUS 210, YAG media” value is 1 (1: ≥5 mg/L). Moreover, in the assay with C. tropicalis, the “MIC grade, C. TROPICALIS, RPMI media” value was 1 (1: ≥20 mg/L). For the same compound, the “MIC grade, C. PARAPSILOSIS, RPMI media” value in the assay on C. parapsilosis is on record as 1 (1: ≥20 mg/L). In addition, the “MIC grade, C. ALBICANS, RPMI media” value against C. albicans was 1 (1: ≥20 mg/L). In addition, the “MIC grade, A. TERREUS 49, YAG media” value with A. terreus 49 is 2 (2: 1-5 mg/L). In the assay with Aspergillus flavus, the “MIC grade, A. FLAVUS, YAG media” value is 1 (1: ≥5 mg/L). Moreover, the “MIC grade, A. NIGER, YAG media” value against Aspergillus niger is 2 (2: 1-5 mg/L). Besides, the “MIC grade, A. TERREUS, YAG media” value in the assay with Aspergillus terreus is listed as 2 (2: 1-5 mg/L).

For the compound `COCCCCCC1=NN=C(N)SC1`, in the assay with Aspergillus fumigatus, the “MIC grade, A. FUMIGATUS, YAG media” value is listed as 4 (4: <0.2 mg/L). The “MIC grade, A. FUMIGATUS 210, YAG media” value in the assay with A. fumigatus 210 is 4 (4: <0.2 mg/L). The “MIC grade, C. TROPICALIS, RPMI media” value in the assay on C. tropicalis is recorded as 3 (3: 1-5 mg/L). In the assay with C. parapsilosis, the “MIC grade, C. PARAPSILOSIS, RPMI media” value is listed as 4 (4: <1 mg/L). Moreover, in the assay on C. albicans, the “MIC grade, C. ALBICANS, RPMI media” value is given as 4 (4: <1 mg/L). In the assay with A. terreus 49, the “MIC grade, A. TERREUS 49, YAG media” value is listed as 4 (4: <0.2 mg/L). For the same compound, the “MIC grade, A. FLAVUS, YAG media” value in the assay with Aspergillus flavus was 4 (4: <0.2 mg/L). Further, in the assay on Aspergillus niger, the “MIC grade, A. NIGER, YAG media” value is listed as 4 (4: <0.2 mg/L). Besides, in the assay with Aspergillus terreus, the “MIC grade, A. TERREUS, YAG media” value was 4 (4: <0.2 mg/L).

For `CCCCCOc1ccc(CCC2=NN=C(N)SC2)cc1`, in the assay with Aspergillus fumigatus, the “MIC grade, A. FUMIGATUS, YAG media” value is recorded as 1 (1: ≥5 mg/L). Moreover, the “MIC grade, A. FUMIGATUS 210, YAG media” value in the assay on A. fumigatus 210 is listed as 1 (1: ≥5 mg/L). In addition, the “MIC grade, C. TROPICALIS, RPMI media” value with C. tropicalis is given as 3 (3: 1-5 mg/L). Besides, in the assay with C. parapsilosis, the “MIC grade, C. PARAPSILOSIS, RPMI media” value was 3 (3: 1-5 mg/L). In the assay on C. albicans, the “MIC grade, C. ALBICANS, RPMI media” value is 1 (1: ≥20 mg/L). Also, the “MIC grade, A. TERREUS 49, YAG media” value in the assay with A. terreus 49 is 3 (3: 0.2-1 mg/L). Further, in the assay with Aspergillus flavus, the “MIC grade, A. FLAVUS, YAG media” value is listed as 3 (3: 0.2-1 mg/L). Also, in the assay with Aspergillus niger, the “MIC grade, A. NIGER, YAG media” value was 3 (3: 0.2-1 mg/L). The “MIC grade, A. TERREUS, YAG media” value against Aspergillus terreus is on record as 2 (2: 1-5 mg/L).

As for `NC1=NN=C(c2ccc(C3CCCCC3)cc2)CS1`, the “MIC grade, A. FUMIGATUS, YAG media” value in the assay with Aspergillus fumigatus is reported as 1 (1: ≥5 mg/L). The “MIC grade, A. FUMIGATUS 210, YAG media” value with A. fumigatus 210 was 1 (1: ≥5 mg/L). Further, the “MIC grade, C. TROPICALIS, RPMI media” value against C. tropicalis is listed as 1 (1: ≥20 mg/L). Also, the “MIC grade, C. PARAPSILOSIS, RPMI media” value against C. parapsilosis is given as 1 (1: ≥20 mg/L). For the same compound, the “MIC grade, C. ALBICANS, RPMI media” value against C. albicans is 1 (1: ≥20 mg/L). In addition, the “MIC grade, A. TERREUS 49, YAG media” value with A. terreus 49 is 1 (1: ≥5 mg/L). Moreover, the “MIC grade, A. FLAVUS, YAG media” value with Aspergillus flavus was 1 (1: ≥5 mg/L). In addition, in the assay with Aspergillus niger, the “MIC grade, A. NIGER, YAG media” value is 1 (1: ≥5 mg/L). The “MIC grade, A. TERREUS, YAG media” value in the assay with Aspergillus terreus is on record as 1 (1: ≥5 mg/L).

Turning to `NC1=NNC(c2cccc3ccccc23)=CS1`, the “MIC grade, A. FUMIGATUS, YAG media” value against Aspergillus fumigatus is 1 (1: ≥5 mg/L). Also, in the assay on A. fumigatus 210, the “MIC grade, A. FUMIGATUS 210, YAG media” value was 1 (1: ≥5 mg/L). Moreover, the “MIC grade, C. TROPICALIS, RPMI media” value against C. tropicalis was 1 (1: ≥20 mg/L). For the same compound, the “MIC grade, C. PARAPSILOSIS, RPMI media” value in the assay with C. parapsilosis is given as 2 (2: 5-20 mg/L). In addition, in the assay on C. albicans, the “MIC grade, C. ALBICANS, RPMI media” value is 1 (1: ≥20 mg/L). Also, the “MIC grade, A. TERREUS 49, YAG media” value against A. terreus 49 is listed as 1 (1: ≥5 mg/L). In the assay on Aspergillus flavus, the “MIC grade, A. FLAVUS, YAG media” value is given as 1 (1: ≥5 mg/L). The “MIC grade, A. NIGER, YAG media” value in the assay with Aspergillus niger is reported as 1 (1: ≥5 mg/L). Also, in the assay on Aspergillus terreus, the “MIC grade, A. TERREUS, YAG media” value is listed as 1 (1: ≥5 mg/L).

Take `NC1=NN=C(CCCCCCc2ccccc2)CS1`: the “MIC grade, A. FUMIGATUS, YAG media” value against Aspergillus fumigatus is listed as 4 (4: <0.2 mg/L). The “MIC grade, A. FUMIGATUS 210, YAG media” value in the assay with A. fumigatus 210 is 4 (4: <0.2 mg/L). The “MIC grade, C. TROPICALIS, RPMI media” value in the assay on C. tropicalis is reported as 3 (3: 1-5 mg/L). In addition, in the assay on C. parapsilosis, the “MIC grade, C. PARAPSILOSIS, RPMI media” value is 4 (4: <1 mg/L). In addition, in the assay on C. albicans, the “MIC grade, C. ALBICANS, RPMI media” value was 2 (2: 5-20 mg/L). The “MIC grade, A. TERREUS 49, YAG media” value in the assay on A. terreus 49 was 3 (3: 0.2-1 mg/L). Further, the “MIC grade, A. FLAVUS, YAG media” value with Aspergillus flavus is 4 (4: <0.2 mg/L). Moreover, in the assay on Aspergillus niger, the “MIC grade, A. NIGER, YAG media” value was 4 (4: <0.2 mg/L). The “MIC grade, A. TERREUS, YAG media” value in the assay with Aspergillus terreus is listed as 4 (4: <0.2 mg/L).

Turning to `N#Cc1ccc(COCCC2=NN=C(N)SC2)cc1`, the “MIC grade, A. FUMIGATUS, YAG media” value against Aspergillus fumigatus is on record as 4 (4: <0.2 mg/L). Further, the “MIC grade, A. FUMIGATUS 210, YAG media” value against A. fumigatus 210 was 4 (4: <0.2 mg/L). Besides, the “MIC grade, C. TROPICALIS, RPMI media” value with C. tropicalis is 1 (1: ≥20 mg/L). For the same compound, the “MIC grade, C. PARAPSILOSIS, RPMI media” value in the assay on C. parapsilosis is reported as 2 (2: 5-20 mg/L). In addition, in the assay with C. albicans, the “MIC grade, C. ALBICANS, RPMI media” value is 2 (2: 5-20 mg/L). The “MIC grade, A. TERREUS 49, YAG media” value with A. terreus 49 was 4 (4: <0.2 mg/L). Besides, the “MIC grade, A. FLAVUS, YAG media” value against Aspergillus flavus is given as 3 (3: 0.2-1 mg/L). Moreover, the “MIC grade, A. NIGER, YAG media” value with Aspergillus niger is 4 (4: <0.2 mg/L). For the same compound, the “MIC grade, A. TERREUS, YAG media” value in the assay on Aspergillus terreus is listed as 4 (4: <0.2 mg/L).
